Test results from patent US20070053837A1, “Radiopharmaceuticals for cancer diagnosis and treatment” (priority 2003, published 2007).
Square brackets hold non-standard residues; d marks the D form. Peptide text beside a SMILES is read from it. * marks the point of attachment. DOTA = O=C(O)CN1CCN(CC(=O)O)CCN(CC(=O)*)CCN(CC(=O)O)CC1; Met(O2) = CS(=O)(=O)CC[C@H](N)C(=O)O; 2Thi = N[C@@H](Cc1cccs1)C(=O)O; Sar = CNCC(=O)O

Columns and labels:
[1] = target: T1, NK1 receptors (Homo sapiens, UniProt P25103); assay: Binding affinity to NK-1 receptors, in vitro autoradiography, displacement of ^125I-Bolton-Hunter-SP; conditions: tumor tissue expressing NK1 receptors; radioligand ^125I-Bolton-Hunter-SP; concentrations 0.1 nM to 1'000 nM; read-out: IC50 ± SEM (mean value)
T1 construct: In vitro autoradiography is performed with tumor tissue expressing NK1 receptors; from tissue
Description: Example C4 Binding Affinity to NK-1 Receptors In vitro autoradiography is performed with tumor tissue expressing NK1 receptors. The used radioligand is ^125I-Bolton-Hunter-SP. Displacement experiments are performed on successive sections with the various compounds listed in the Table given in concentrations ranging from 0.1 nM to 1'000 nM.

[2] = test system: gliomas / glioblastoma; design: species or system patients; conditions: in vivo
Excerpt: As a third group which can serve as a control, 5 advanced cases that had been treated by the so called standard regimens with virtually no therapeutic option left anymore were included. […] In cases with biopsy alone, average survival is around 9 weeks without further treatment. In the 4 cases of this pilot study, all patients survived at least 2 months and up to 9 months, and In a special case even show a remarkable partial response. In the resected 5 cases followed by Internal radionuclide conjugate brachytherapy, overall survival appeared to be longer than expected which is in the range between 14 and 26 months. According to the only large randomized trial of 1970s which serves as historical control, resection alone would have led to an expected survival of about 4 months, and resection plus an external beam radiotherapy to a mean survival of about 9.5 months. […] This interpretation of the data is further supported by an impressive partial response (case W. […] A key question in local glioma therapy is whether one can achieve to reach infiltrating tumor cell nests or satellite lesion. […] The presently used dissipative Y-90 (range 3-6 mm) is more suitable for bulky lesions.

[3] = format: in vitro ADME, patients
Description: Further stability test by in vitro experiments incubating ^90Y-DOTAGA-Substance P in different CSF (cerebrospinal fluid) aspirates from patients are executed.

T1 sequence (P25103 whole entry): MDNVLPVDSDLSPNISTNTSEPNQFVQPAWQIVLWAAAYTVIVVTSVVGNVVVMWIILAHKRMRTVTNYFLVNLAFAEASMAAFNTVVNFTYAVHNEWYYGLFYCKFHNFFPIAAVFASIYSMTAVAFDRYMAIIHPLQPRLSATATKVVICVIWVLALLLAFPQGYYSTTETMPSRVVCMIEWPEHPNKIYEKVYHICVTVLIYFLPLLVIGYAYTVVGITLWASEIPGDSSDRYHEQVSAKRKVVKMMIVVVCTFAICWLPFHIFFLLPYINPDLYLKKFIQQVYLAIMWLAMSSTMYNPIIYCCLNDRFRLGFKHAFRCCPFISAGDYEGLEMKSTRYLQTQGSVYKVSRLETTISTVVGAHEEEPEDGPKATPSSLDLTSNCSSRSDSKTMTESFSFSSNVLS

Row | Compound | IC50 [1] [nM] | also measured
1 | CC(C)C[C@H](NC(=O)CNC(=O)[C@H](Cc1cccs1)NC(=O)[C@H](Cc1ccccc1)NC(=O)[C@H](CCC(N)=O)NC(=O)[C@H](CCC(N)=O)NC(=O)[C@@H]1CCCN1C(=O)[C@H](CCCCN)NC(=O)[C@@H]1CCCN1C(=O)[C@H](CCCNC(=N)N)NC(=O)CN1CCN(CC(=O)O)CCN(CC(=O)O)CCN(CC(=O)O)CC1)C(=O)N[C@@H](CCS(C)(=O)=O)C(N)=O [^111In-DOTA-Arg^1-Pro^2-Lys^3-Pro^4-Gln^5-Gln^6Phe^7-Thi^8-Gly^9-Leu^10-Met(O2)^11—NH2, metal not drawn] ({DOTA}-RPKPQQF[2Thi]GL[Met(O2)]-NH2) | 0.78 ± 0.03 | –
2 | CSCC[C@H](NC(=O)[C@H](CC(C)C)NC(=O)CNC(=O)[C@H](Cc1ccccc1)NC(=O)[C@H](Cc1ccccc1)NC(=O)[C@H](CCC(N)=O)NC(=O)[C@H](CCC(N)=O)NC(=O)[C@@H]1CCCN1C(=O)[C@H](CCCCN)NC(=O)[C@@H]1CCCN1C(=O)[C@H](CCCNC(=N)N)NC(=O)CCC(C(=O)O)N1CCN(CC(=O)O)CCN(CC(=O)O)CCN(CC(=O)O)CC1)C(N)=O (single isomer, unassigned) [^111In-DOTAGA-Substance P, ^111In-DOTAGA-Arg^1-Pro^2-Lys^3-Pro^4-Gln^5-Gln^6-Phe^7-Phe^8-Gly^9-Leu^10-Met^11-NH2, metal not drawn] | – | diffusibility: distance of satellite lesion that becomes visible [2]: 4 cm
3 | CSCC[C@H](NC(=O)[C@H](CC(C)C)NC(=O)CN(C)C(=O)[C@H](Cc1cccs1)NC(=O)[C@H](Cc1ccccc1)NC(=O)[C@H](CCC(N)=O)NC(=O)[C@H](CCC(N)=O)NC(=O)[C@@H]1CCCN1C(=O)[C@H](CCCCN)NC(=O)[C@@H]1CCCN1C(=O)[C@H](CCCNC(=N)N)NC(=O)CN1CCN(CC(=O)O)CCN(CC(=O)O)CCN(CC(=O)O)CC1)C(N)=O [^111In-DOTA-[Thi^8, Sar^9]-Substance P, ^111In-DOTA-Arg^1-Pro^2-Lys^3-Pro^4-Gln^5-Gln^6-Phe^7-Thi^8-Sar^9-Leu^10-Met^11-NH2, metal not drawn] ({DOTA}-RPKPQQF[2Thi][Sar]LM-NH2) | 3.4 ± 0.4 | –
4 | CSCC[C@H](NC(=O)[C@H](CC(C)C)NC(=O)CNC(=O)[C@H](Cc1ccccc1)NC(=O)[C@H](Cc1ccccc1)NC(=O)[C@H](CCC(N)=O)NC(=O)[C@H](CCC(N)=O)NC(=O)[C@@H]1CCCN1C(=O)[C@H](CCCCN)NC(=O)[C@@H]1CCCN1C(=O)[C@H](CCCNC(=N)N)NC(=O)CCC(C(=O)O)N1CCN(CC(=O)O)CCN(CC(=O)O)CCN(CC(=O)O)CC1)C(N)=O (stereo partly drawn) [^90Y-DOTAGA-Substance P, ^90Y-DOTAGA-Arg^1-Pro^2-Lys^3-Pro^4-Gln^5-Gln^6-Phe^7-Phe^8-Gly^9-Leu^10-Met^11-NH2, metal not drawn] | – | stability in CSF aspirate [3]: stable for several hours; time to complete degradation in CSF aspirate [3]: ≤ 5 h
5 | CSCC[C@H](NC(=O)[C@H](CC(C)C)NC(=O)CNC(=O)[C@H](Cc1cccs1)NC(=O)[C@H](Cc1cccs1)NC(=O)[C@H](CCC(N)=O)NC(=O)[C@H](CCC(N)=O)NC(=O)[C@@H]1CCCN1C(=O)[C@H](CCCCN)NC(=O)[C@@H]1CCCN1C(=O)[C@H](CCCNC(=N)N)NC(=O)CN1CCN(CC(=O)O)CCN(CC(=O)O)CCN(CC(=O)O)CC1)C(N)=O [^111In-DOTA-[Thi^7, Thi^8]-Substance P, ^111In-DOTA-Arg^1-Pro^2-Lys^3-Pro^4-Gln^5-Gln^6-Thi^7-Thi^8-Gly^9-Leu^10-Met^11-NH2, metal not drawn] ({DOTA}-RPKPQQ[2Thi][2Thi]GLM-NH2) | 7.7 ± 0.7 | –
